Values of other authors as cited in patent publication US11051972B1 (priority 2020, dated 2021).
Where two headings read alike, the source gives them in different places.

Columns and labels:
[1] = tested on: novel coronavirus (COVID-19); conditions: multi-center study in China, journal article [14, 20]

Structure (SMILES) | effectiveness against the novel coronavirus (COVID-19) [1] | % Excreted Unchanged or Active Metabolite in Urine (in vivo) [%] | % Excreted Unchanged or Active Metabolite in Urine (urine) [%]
CCN(CC)CCCC(C)Nc1ccnc2cc(Cl)ccc12 (stereo not shown) [Chloroquine] | effective | 70 | –
C[C@H]1COc2c(N3CCN(C)CC3)c(F)cc3c(=O)c(C(=O)O)cn1c23 [Levaquin] | – | 85 | –
CCC(CC)[C@H](NC(C)=O)[C@@H]1[C@H](O)[C@@H](C(=O)O)C[C@H]1N=C(N)N [Rapivab] | – | – | 90
CC(=O)N[C@H]1[C@H]([C@H](O)[C@H](O)CO)OC(C(=O)O)=C[C@@H]1N=C(N)N [Relenza] | – | – | 90
CCC(CC)COC(=O)[C@H](C)N[P@](=O)(OC[C@H]1O[C@@](C#N)(c2ccc3c(N)ncnn23)[C@H](O)[C@@H]1O)Oc1ccccc1 [Remdesevir] | – | – | 60
CCOC(=O)C1=C[C@@H](OC(CC)CC)[C@H](NC(C)=O)[C@@H](N)C1 [Tamiflu] | – | – | 90
